Data: PubChem BioAssay (NCI)
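1) Cells in 96-well plates. 2) Compound, 48 h, 5 concentrations. 3) Linear interpolation between surrounding doses. 4) Unreached endpoint = highest concentration. The concentration for full growth arrest is given as TGI.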

What was measured:
Experiment in all cases: NCI tumour cell line growth inhibition, 48 h
NCI-H522 lung = system: NCI-H522 lung
NCI-H460 lung = system: NCI-H460 lung
SNB-75 CNS = system: SNB-75 CNS
PC-3 prostate = system: PC-3 prostate
BT-549 breast = system: BT-549 breast
786-0 renal = system: 786-0 renal
NCI-H23 lung = system: NCI-H23 lung
SK-MEL-5 melanoma = system: SK-MEL-5 melanoma
A549 NSCLC = system: A549 NSCLC
LOX IMVI melanoma = system: LOX IMVI melanoma
SK-MEL-2 melanoma = system: SK-MEL-2 melanoma
SR leukemia = system: SR leukemia
K-562 leukemia = system: K-562 leukemia
U251 CNS = system: U251 CNS
MOLT-4 leukemia = system: MOLT-4 leukemia
SF-539 CNS = system: SF-539 CNS
MDA-MB-231 breast = system: MDA-MB-231 breast
RPMI-8226 leukemia = system: RPMI-8226 leukemia
HOP-62 NSCLC = system: HOP-62 NSCLC
COLO 205 colon = system: COLO 205 colon
KM12 colon = system: KM12 colon
DU-145 prostate = system: DU-145 prostate
CCRF-CEM leukemia = system: CCRF-CEM leukemia
OVCAR-3 ovarian = system: OVCAR-3 ovarian
SW-620 colon = system: SW-620 colon
MDA-N = system: MDA-N
HCT-15 colon = system: HCT-15 colon
UACC-257 melanoma = system: UACC-257 melanoma
OVCAR-8 ovarian = system: OVCAR-8 ovarian
SK-MEL-28 melanoma = system: SK-MEL-28 melanoma
A498 renal = system: A498 renal
OVCAR-5 ovarian = system: OVCAR-5 ovarian
NCI-H226 lung = system: NCI-H226 lung
SK-OV-3 ovarian = system: SK-OV-3 ovarian
HCT-116 colon = system: HCT-116 colon
EKVX NSCLC = system: EKVX NSCLC
ACHN renal = system: ACHN renal
SF-268 CNS = system: SF-268 CNS
SN12C renal = system: SN12C renal
MALME-3M melanoma = system: MALME-3M melanoma
SNB-19 CNS = system: SNB-19 CNS
HT29 colon = system: HT29 colon
HL-60(TB) leukemia = system: HL-60(TB) leukemia
UACC-62 melanoma = system: UACC-62 melanoma
TK-10 renal = system: TK-10 renal
M14 melanoma = system: M14 melanoma
MCF7 breast = system: MCF7 breast
CAKI-1 renal = system: CAKI-1 renal
T-47D breast = system: T-47D breast
HS 578T breast = system: HS 578T breast
HCC-2998 colon = system: HCC-2998 colon
OVCAR-4 ovarian = system: OVCAR-4 ovarian
MDA-MB-435 = system: MDA-MB-435
SF-295 CNS = system: SF-295 CNS
IGROV1 ovarian = system: IGROV1 ovarian
HOP-92 NSCLC = system: HOP-92 NSCLC
UO-31 renal = system: UO-31 renal
RXF 393 renal = system: RXF 393 renal

Cc1ccc(NC(=O)/C=C/c2ccccc2)c(C)c1
TGI (NCI-H522 lung): > 100 µM
TGI (NCI-H460 lung): > 100 µM
TGI (SNB-75 CNS): > 100 µM
TGI (PC-3 prostate): > 100 µM
TGI (BT-549 breast): > 100 µM
TGI (786-0 renal): > 100 µM
TGI (NCI-H23 lung): > 100 µM
TGI (SK-MEL-5 melanoma): > 100 µM
TGI (A549 NSCLC): > 100 µM
TGI (LOX IMVI melanoma): > 100 µM
TGI (SK-MEL-2 melanoma): > 100 µM
TGI (SR leukemia): > 100 µM
TGI (K-562 leukemia): > 100 µM
TGI (U251 CNS): > 100 µM
TGI (MOLT-4 leukemia): > 100 µM
TGI (SF-539 CNS): > 100 µM
TGI (MDA-MB-231 breast): > 100 µM
TGI (RPMI-8226 leukemia): > 100 µM
TGI (HOP-62 NSCLC): > 100 µM
TGI (COLO 205 colon): > 100 µM
TGI (KM12 colon): > 100 µM
TGI (DU-145 prostate): > 100 µM
TGI (CCRF-CEM leukemia): > 100 µM
TGI (OVCAR-3 ovarian): > 100 µM
TGI (SW-620 colon): > 100 µM
TGI (MDA-N): > 100 µM
TGI (HCT-15 colon): > 100 µM
TGI (UACC-257 melanoma): > 100 µM
TGI (OVCAR-8 ovarian): > 100 µM
TGI (SK-MEL-28 melanoma): > 100 µM
TGI (A498 renal): > 100 µM
TGI (OVCAR-5 ovarian): > 100 µM
TGI (NCI-H226 lung): 92 µM
TGI (SK-OV-3 ovarian): > 100 µM
TGI (HCT-116 colon): > 100 µM
TGI (EKVX NSCLC): > 100 µM
TGI (ACHN renal): > 100 µM
TGI (SF-268 CNS): > 100 µM
TGI (SN12C renal): > 100 µM
TGI (MALME-3M melanoma): > 100 µM
TGI (SNB-19 CNS): > 100 µM
TGI (HT29 colon): > 100 µM
TGI (HL-60(TB) leukemia): > 100 µM
TGI (UACC-62 melanoma): > 100 µM
TGI (TK-10 renal): > 100 µM
TGI (M14 melanoma): > 100 µM
TGI (MCF7 breast): > 100 µM
TGI (CAKI-1 renal): > 100 µM
TGI (T-47D breast): > 100 µM
TGI (HS 578T breast): 74.4 µM
TGI (HCC-2998 colon): > 100 µM
TGI (OVCAR-4 ovarian): > 100 µM
TGI (MDA-MB-435): > 100 µM

Brc1ccc(-c2[nH]c3ccccc3c2N=Nc2ccccc2)cc1
TGI (NCI-H522 lung): 34.6 µM
TGI (NCI-H460 lung): 31.8 µM
TGI (SNB-75 CNS): 33.9 µM
TGI (PC-3 prostate): 32.6 µM
TGI (BT-549 breast): 41.5 µM
TGI (786-0 renal): 32.9 µM
TGI (NCI-H23 lung): 34.1 µM
TGI (SK-MEL-5 melanoma): 32.7 µM
TGI (A549 NSCLC): 30.5 µM
TGI (LOX IMVI melanoma): 65.2 µM
TGI (SK-MEL-2 melanoma): 36.7 µM
TGI (SR leukemia): 51.8 µM
TGI (K-562 leukemia): > 100 µM
TGI (U251 CNS): 33.9 µM
TGI (MOLT-4 leukemia): 38.6 µM
TGI (SF-539 CNS): 32 µM
TGI (MDA-MB-231 breast): 35.8 µM
TGI (RPMI-8226 leukemia): 58 µM
TGI (HOP-62 NSCLC): 34.7 µM
TGI (SF-295 CNS): 33.3 µM
TGI (COLO 205 colon): 28.5 µM
TGI (KM12 colon): 36.1 µM
TGI (DU-145 prostate): 32.2 µM
TGI (OVCAR-3 ovarian): 26.8 µM
TGI (SW-620 colon): 35.3 µM
TGI (IGROV1 ovarian): 26.2 µM
TGI (MDA-N): 30.5 µM
TGI (HCT-15 colon): 30 µM
TGI (UACC-257 melanoma): 35.1 µM
TGI (HOP-92 NSCLC): 36.2 µM
TGI (SK-MEL-28 melanoma): 37.8 µM
TGI (A498 renal): 44.1 µM
TGI (OVCAR-5 ovarian): 33.5 µM
TGI (UO-31 renal): 29.9 µM
TGI (SK-OV-3 ovarian): 33 µM
TGI (HCT-116 colon): 34.8 µM
TGI (EKVX NSCLC): 32.9 µM
TGI (ACHN renal): 37.2 µM
TGI (SF-268 CNS): 36 µM
TGI (SN12C renal): 31.6 µM
TGI (MALME-3M melanoma): 36.1 µM
TGI (SNB-19 CNS): 38.1 µM
TGI (HL-60(TB) leukemia): 63.4 µM
TGI (UACC-62 melanoma): 36.7 µM
TGI (TK-10 renal): 37.8 µM
TGI (RXF 393 renal): 30.8 µM
TGI (M14 melanoma): 33.5 µM
TGI (MCF7 breast): 31.7 µM
TGI (CAKI-1 renal): 27.8 µM
TGI (T-47D breast): 32.5 µM
TGI (HS 578T breast): 44.1 µM
TGI (HCC-2998 colon): 30.7 µM
TGI (OVCAR-4 ovarian): 30.4 µM
TGI (MDA-MB-435): 34.5 µM
